Test system: neutral sphingomyelinase
Assay: Sphingomyelinase Assay: neutral sphingomyelinase inhibition, release of 14C-phosphocholine from 14C-sphingomyelin, U937 cell lysate
Format: biochemical
Conditions: for percentage of enzyme inhibition: highest concentration tested (100 uM), IC50 not determined, U937 cell lysate, 1 hour at 37; for IC50: U937 cell lysate as enzyme, 14C-sphingomyelin substrate, pH 7.5, 1 hour at 37
Experimental: Neutral sphingomyelinase is an enzyme that cleaves sphingomyelin to yield ceramide and phosphocholine. […] After cleavage, an extraction separates the labeled, water-soluble phosphocholine from the intact substrate and the ceramide.
Cell Iysates are made by nitrogen cavitation of harvested cells in Buffer A (20 mM Tris, pH 7.4, 250 mM sucrose, 10 mM EGTA, 10 ug/ml leupeptin, 1 mM PMSF, […]). Lysates are flash frozen and stored at -40 C.
Substrate Preparation: N-methyl-^14 C-sphingomyelin (specific activity 50 mCi/mM) and phosphatidylinositol are evaporated under a stream of nitrogen and resuspended at an equimolar concentration of 0.1 mM in water with 0.5% Triton X-100. The solution is vortexed for 30 minutes and then sonicated for 30 minutes.
Sphingomyelinase Assay: The reaction mixture contains 25 ul 2X Tris Mg buffer (200 mM Tris-HCl, pH 7.5. 160 mM MgCl), 10 ul ^14 C-sphingomyelin substrate, 10 ul lysate (enzyme) and 5 ul test compound or vehicle for a final volume of 50 l. The assays are carried out in 1.5 ml microcentriftige tubes and are incubated for 1 hour at 37. The reaction is stopped with 30 l of water and 175 l chloroform/methanol (2:1, v:v). The tubes arc vortexed vigorously, centrifuged for 5 minutes in a microfuge at maximum speed and 50 l of the upper, aqueous phase is counted in a liquid scintillation counter. Alternatively, the assay may be set up in wells of a 96-well PCR plate in identical proporations to a total volume of 50 l. Then the plates are incubated at 37 C incubator for 1 hour. H2 O (30 l) is added to all plates and the plates are again incubated for 1 hour. Chloroform-methanol (2:1) is added in a volume of 175 l followed by vigorous mixing. The plates are sealed with adhesive covers and centrifuged at 3000 rpm for 10 minutes at 5 C. The plates are uncovered and 50 µl of upper, aqueous phase is transferred to a Flashplate™(NEN) scintillation proximity assay plate. The Flashplates are dried overnight, sealed, and counted using a Topcount scintillation counter.
Compounds that are antagonists of neutral sphingomyelinase are reported as a positive value for inhibition in Table 4.

Structure (SMILES) | percentage of enzyme inhibition [%] | IC50 [µM]
C[C@@H](O)[C@@H](C(=O)O)N(C/C=C/c1cccc2ccccc12)C/C=C/c1cccc2ccccc12 [Compound 10] | 21 | 
C[C@@H](C(=O)O)N(C/C=C/c1ccnc2ccccc12)C/C=C/c1ccnc2ccccc12 [Compound 13] | < 5 | 
COC(=O)[C@H](CO)[N+](C)(C/C=C/c1cccc2ccccc12)C/C=C/c1cccc2ccccc12 [Compound 14] |  | 19
CC(C(=O)OC(C)(C)C)[N+](C)(CC=Cc1cccc2ccccc12)CC=Cc1cccc2ccccc12 (centres unmarked) [Compound 15] |  | 28
C[N+](C/C=C/c1cccc2ccccc12)(C/C=C/c1cccc2ccccc12)[C@@H](CO)C(=O)O [Compound 16] | 24 | 
C[C@@H](C(=O)O)N(CC#Cc1cccc2ccccc12)CC#Cc1cccc2ccccc12 [Compound 17, Alanine, N,N-Bis[3-(1-naphthalenyl)-2-propynyl]--] |  | 10
O=C(O)C(CO)N(CC#Cc1cccc2ccccc12)CC#Cc1cccc2ccccc12 (centres unmarked) [Compound 18] | < 5 | 
COc1ccc(C#CCN(CC#Cc2ccc(OC)cc2)[C@@H](C)C(=O)O)cc1 [Compound 19] | 27 | 
CC(C(=O)O)N(Cc1cccc2ccccc12)Cc1cccc2ccccc12 (centres unmarked) [Compound 20] | < 5 | 
O=C(O)C(CO)N(Cc1cccc2ccccc12)Cc1cccc2ccccc12 (centres unmarked) [Compound 21] | < 5 | 
O=C(O)C(CO)N(CCc1cccc2ccccc12)CCc1cccc2ccccc12 (centres unmarked) [Compound 22] | < 5 | 
O=C(O)C(CO)N(CCCc1cccc2ccccc12)CCCc1cccc2ccccc12 (centres unmarked) [Compound 23] |  | 89
CC(C(=O)OC(C)(C)C)N(CC=Cc1ccnc2ccccc12)CC=Cc1ccnc2ccccc12 (centres unmarked) [Compound 24] | < 5 | 
CC(C(=O)O)N(CCc1cccc2ccccc12)CCc1cccc2ccccc12 (centres unmarked) [Compound 25] | < 5 | 

Source: patent publication US6306911A, “Substituted amino acids as neutral sphingomyelinase inhibitors” (Ortho-McNeil Pharmaceutical, Inc., priority 2000, dated 2001)
